{"source": "paper PMC8591608", "about": "“DNDI-6148: A Novel Benzoxaborole Preclinical Candidate for the Treatment of Visceral Leishmaniasis” (Journal of Medicinal Chemistry, 2021)", "key": {"[1]": {"system": "T. brucei trypanosomes maintaining a mutated version of CPSF3 (Asn232His)", "test": "Drug sensitivity, T. brucei with mutated CPSF3", "assay_type": "cell-based", "protocol": "The clonal L. donovani cell line LdBOB (derived from MHOM/SD/62/1S-CL2D) was grown as promastigotes at 28 °C, as described previously. Bloodstream form T. brucei MiTat 1.2 clone 221a and its derived subline, 2T1, were cultured at 37 °C in the presence of 5% CO2 in HMI9-T medium, as described previously. T. brucei cell lines overexpressing CPSF3 and overexpressing a mutated version of CPSF3 (Asn232His) were generated as part of a previous study and cultured as described.[19]\nDrug sensitivity assays with wild-type and transgenic T. brucei and L. donovani cell lines were carried out as previously described.[31],[32]"}, "[2]": {"system": "L. infantum and L. donovani", "test": "Hamster models of infection (summary statement)", "conditions": "in vivo efficacy in hamster models of infection", "from_the_text": "Female golden hamsters were randomly allocated to experimental groups of six animals each, based on body weight. At the start of the experiment (Day 0), each animal was infected with L. infantum or L. donovani inoculum, delivered by intracardial injection. Six hamsters were assigned to the vehicle-treated, infected control group. Six hamsters were assigned per group (1 group/compound) for the evaluation of compound and miltefosine. At Day 21 postinfection (21 dpi), all animals in each group were dosed orally for five (or ten) consecutive days (21–25 dpi): compound was dosed at 25–50 mg/kg b.i.d.; miltefosine was dosed at 40 mg/kg q.d. At Day 35 (10 days after the final oral dose), all animals were euthanized and autopsies were conducted. The study evaluated the following parameters. • 1. Adverse effects: all animals were observed daily for the occurrence/presence of adverse effects. • 2. […] Parasite burden: amastigote burdens in each target organ (liver, spleen, and bone marrow) were determined at Day 35. […] Impression smears were stained with Giemsa for microscopic examination of the total amastigote burden, defined as the mean number of amastigotes per cell multiplied by the number of cells counted (minimum 500 nuclei); the results were expressed as a percentage reduction in amastigote burden compared to vehicle-treated, infected control animals."}, "[3]": {"test": "Liver microsome stability, mouse", "assay_type": "in vitro ADME", "conditions": "Balb/c, mouse liver microsomes, pH 7.4", "protocol": "Tests were performed by WuXi AppTec, China. Test compounds (at 1 μM) or positive controls (testosterone, propafenone, and diclofenac) were incubated at 37 °C with liver microsomes from Balb/c mouse, golden (Syrian) hamster, Sprague-Dawley rat, Beagle dog, or human in the presence of a NADPH regenerating system and phosphate buffer (100 mM, pH 7.4) at 0.4 or 0.8 mg/mL microsomal protein. The samples were removed at time intervals from 0 to 60, 90, or 120 min and immediately mixed with cold methanol supplemented or not with acid (3% formic acid) and centrifuged prior to analysis by LC-MS/MS using tolbutamide or propranolol as internal standards."}}}
{"smiles": "Cc1c(C(=O)Nc2ccc3c(c2)B(O)OC3)nnn1-c1ccccn1", "note": "[Compound 23, N-(1-Hydroxy-1,3-dihydrobenzo[c][1,2]oxaborol-6-yl)-5-methyl-1-(pyridin-2-yl)-1H-1,2,3-triazole-4-carboxamide]", "values": [{"measurement": "EC50", "setting": "[1]; Trypanosoma brucei", "result": "90 ± 3.4", "unit": "nM"}, {"measurement": "fold less sensitive compared to wild-type", "setting": "[1]; bloodstream trypanosomes, CPSF3 Asn232His", "result": 1.8, "unit": "fold"}, {"measurement": "reduction in parasite burden", "setting": "[2]", "result": "> 98", "unit": "%"}, {"measurement": "microsomal CLint at 1 μM", "setting": "[3]", "result": "< 11.9", "unit": "µL/min/mg"}]}
